The values that follow come from US7141661B2, “Non-steroidal anti-inflammatory drug activated gene with anti-tumorigenic properties” (The United States of America as represented by the …, priority 2000, dated 2006).

SMILES strings stand for the structures.

Common to all, as to type: cell-based, human
The subject of assay [1] is NAG-1. The assay is described as follows: Northern blot NAG-1 induction in U937 leukemia cells. As to conditions: INDO treatment, 24 hr. As for the experimental part: NSAID-induced apoptosis is not restricted to colorectal cells, as NSAIDs can induce apoptosis in breast, lung, leukemia, and prostate cell lines. To test for the induction of NAG-1 by NSAIDs in different cell lines, A549 lung epithelial cells, MCF-7 mammary cells, PC-3 prostate cancer cells, and U937 leukemia cell lines were treated with several concentrations of INDO and aspirin. Then, as described above, Northern blot analysis was performed. […] Quiescent cells were grown for 24 hr in the presence of indicated NSAIDs. Total RNAs were isolated and subjected to Northern analysis using NAG-1 and β-actin as probes. The blots contained 10 μg of total RNA from INDO- or Aspirin (Asp)-treated cells with indicated doses. “V” indicates total RNAs from vehicle (0.2% DMSO) treated cells. The results shown are representative of those obtained in two experiments.

Assay [2] concerns NAG-1. The assay is described as follows: Western blot analysis of secreted NAG-1 protein from HCT-116 cells. As to conditions: HCT-116, 100 μM INDO, 36 and 48 hr, no serum. How it is done: The level of secreted NAG-1 was evaluated using Western blot analysis with anti-human-NAG-1 antibody (generously provided by Dr. Paralkar of Pfizer). HCT-116 cells were grown to 60–80% confluency in 10 cm plates followed by 48 hr treatment in the absence of serum with either NSAIDs or TGZ. The media were harvested and concentrated approximately 15-fold using Centriprep 10 concentrators (Amicon). Proteins (30 μg) were separated by 15% SDS-PAGE and transferred for 1 hr onto nitrocellulose membrane (Schleicher & Schuell). The blots were blocked for 1 hr with 5% skim milk in TBS/Tween 0.05%, and probed with anti-NAG-1 antibody (1 μg/ml in TBS-0.2%-Tween20) at […] overnight. After washing, the blots were treated with horseradish peroxidase-conjugated secondary antibody for 1 hr and washed several times. The signal was detected by enhanced chemiluminescence system (AMERSHAM) and autoradiography.
HCT-116 cells were treated with 100 μM INDO in the absence of serum for various times. In FIG. 1B, left panel. 10 μg of total RNA was loaded in each lane. Northern blotting was performed using the NAG-1 probe and re-probed with β-actin probe. The hybridization signals were quantitated using Scion Image software (Scion). Levels of the 1.3 kb NAG-1 transcript were normalized to the levels of β-actin transcripts and represented relative to 0 hr treatment. […] The signal was detected by ECL reagent (AMERSHAM).
(Immunoblotting shows a protein as a band on a membrane.)

For assay [3], the system named is NAG-1. The assay is described as follows: Northern blot analysis of NAG-1 mRNA expression in HCT-116 cells. How it is done:
Upon reaching 60–80% confluence in 10 cm plates, the cells were treated at indicated concentrations and times with either different NSAIDs or PPARγ ligands in the absence of serum. Total RNAs were isolated using TRIzol reagent (Life Technologies) according to the manufacturer's protocol. For Northern blot analysis, […] of total RNA was denatured at 55° C. for 15 min and separated in a 1.2% agarose gel containing 2.2 M formaldehyde, and transferred to Hybond-N membrane ([…]). After fixing the membrane by UV, blots were prehybridized in hybridization solution (Rapid-hyb buffer, […]) for 1 hr at 65° C. followed by hybridization with cDNA labeled with [α-^32P]dCTP by random primer extension (DECAprimeII kit, Ambion). The probes used were either full-length NAG-1 fragment or PTGFB clone (generously provided by Dr. Bento-Soar of the University of Iowa). After 4 hr incubation at 65° C., the blots were washed once with 2×SSC/0.1% SDS at RT and twice with 0.1×SSC/0.1% SDS at 65° C. Messenger RNA abundance Was estimated by intensities of the hybridization bands of autoradiographs using Scion Image (Scion). Equivalent loading of RNA samples was confirmed by hybridizing the same blot with a ^32P-labeled b-actin probe which recognizes RNA of approximately 2 kb.
To determine whether other NSAIDs increased apoptosis and NAG-1 expression, tests were conducted to determine whether variants of NSAIDs induced NAG-1 gene expression and NSAID-induced apoptosis. Aspirin, ibuprofen, indomethacin, and sulindac sulfide were selected since they are known COX inhibitors. […] HCT-116 cells were treated with different NSAIDs (vehicle, 0.2% DMSO; aspirin, 10 mM; ibuprofen, 1 mM; sodium salicylate, 5 mM; sulindac sulfide, 50 μM; sulindac, 40 μM; acetaminophen, 100 μM) for 24 hr in the absence of serum. Northern analysis was performed using NAG-1 and β-actin as probes. Total RNAs were isolated from NSAID-treated HCT-116 cells after 24 hr treatment and Northern blot was performed using NAG-1 cDNA as a probe (data not shown). […] Each of the doses were as follows: aspirin (1, 5, 10 mM); ibuprofen (100, 500, 1000 μM); salicylate (1, 2.5, 5 mM); sulindac sulfide (1, 10, 50 μM); sulindac (10, 20, 40 μM); acetaminophen (10, 50, 100 μM). After 48 hr treatment with NSAIDs in the presence of serum, cells were harvested and assayed as described in FIG. 1C. Apoptosis detected by PI staining was measured by FACS, as known in the art (FIG. 2A; HCT-116 cells were treated with different NSAIDs (vehicle, 0.2% DMSO; Aspirin, 10 mM; Ibuprofen, 1 mM; Sodium Salicylate, 5 mM; Sulindac Sulfide, 50 μM; Sulindac, 40 μM; Acetaminophen, 100 μM) for 24 hr in the absence of serum. Northern analysis was performed using NAG-1 and β-actin as probes. The open bars represent the relative expression of NAG-1 mRNA over the control (vehicle). The hatched bars represent the relative apoptosis ratio over vehicle treatment by PI staining methods. N=3±S.D.).
In the Table below, HCT-116 cells were treated with different NSAIDs (vehicle, 0.2% DMSO) for 24 hr in the absence of serum. Northern analysis was performed using NAG-1 and β-actin as probes. The data represent relative expression of NAG-1 mRNA over the control (1.0). Each NSAID was tested at 3 different concentrations and maximally effective concentration used for apoptosis determination. Apoptosis ratio by PI staining was measured by FACS. After 48 hr treatment with NSAIDs in the presence of serum, cells were harvested and assayed. The data represent relative apoptosis ratio over vehicle treatment by PI staining methods. TACS™ Annexin V-FITC kit was also used to confirm apoptosis.

Consider `COc1ccc2c(c1)c(CC(=O)O)c(C)n2C(=O)c1ccc(Cl)cc1` [Indomethacin], for which, in assay [1], the NAG-1 expression result is reported as “only a modest increase”. The NAG-1 protein expression entry in assay [2] is reported as “marked increase”. The “NAG-1 mRNA expression” value in assay [3] (HCT-116, 100 μM INDO, 24 hr, no serum) is recorded as “significant increase”. Moreover, the “NAG-1 Induction (mRNA) Fold” value in assay [3] (HCT-116, 24 hr in absence of serum, relative NAG-1 mRNA over vehicle control (1.0), tested over the concentration range listed) was found to be 2.2 Fold.
